Experimental data as given in patent US20010044445A1, “AZOLE INHIBITORS OF CYTOKINE PRODUCTION” (priority 1999, published 2001).
Read-outs that look alike come from different tables or passages of the source.

Tested on: Human peripheral blood mononuclear cells
Assay: Human Concanavalin-A Proliferation Assay (Con HU Assay)
Type: cell-based
Settings: concanavalin-A stimulated human PBMC; for IC50: tritiated thymidine; for inhibition at 100 µM / inhibition at 1 µM / inhibition at 10 µM: 72 h, read-out: % Inhibition of proliferation (at concentrations of 1,10, or 100 μm); for inhibition at 100 µM / % Inhibition of proliferation (at concentrations of 1,10, or 100 μm) / inhibition at 1 µM / inhibition at 10 µM: 3 days
Experimental: Human peripheral blood mononuclear cells were cultured in RPMI 1640 medium supplemented with 10 μg/ml gentamicin, 50 μM 2-mercaptoethanol, 1X MEM non-essential amino acids (Sigma Chemical Co., St. Louis, Mo.), 100 U/ml sodium penicillin G, 100 μg/ml streptomycin sulfate, 2 mM L-glutamine, 1 mM sodium pyruvate (Life Technologies, Grand Island, N.Y.) and 10% fetal bovine serum (Hyclone, Logan, Utah) at 37° C. with 5% CO2.
The procedure in Current Protocols in Immunology, Volume 1, Published by the Greene Publishing Associates and John Wiley & Sons, Inc, Edited by Richard Coico, 1994, hereby incorporated by reference, was followed. Briefly, 50 ml of blood from human volunteers was collected in heparinized syringes and mixed. Blood was diluted 1:1 in Dulbecco's phosphate buffered saline (D-PBS) (Life Technologies, Grand Island, N.Y.) and mixed. PBS-blood mixture was overlaid into 50 ml centrifuge tubes containing 15 ml Histopaque 1077 (Sigma Chemical Co., St. Louis, Mo.) and centrifuged at 500 X G for 30 minutes at room temperature. Cells at the interface from each Histopaque tube were removed and mixed with 5 ml of D-PBS. Each cell suspension was diluted to 50 ml with D-PBS, mixed and centrifuged at 400 X G for 15 minutes at room temperature. After most of the supernatant was removed, cells were resuspended to 40 ml with D-PBS per tube (2 tubes per donor). Cells were centrifuged at 400 X G for 10 minutes at room temperature. Pellets were resuspended in 10 ml of supplemented RPMI 1640 and cell number determined with a Coulter counter. Cells were diluted to a concentration of 0.5×10^6 cells per mL.
The procedure in Current Protocols in Immunology, Volume 1, Published by the Greene Publishing Associates and John Wiley & Sons, Inc, Edited by Richard Coico, 1994, hereby incorporated by reference, was followed. Briefly, test compounds were added to appropriate wells on 96-well tissue culture plates (Corning Glass Works, Corning, N.Y.) in 20 µl of supplemented RPMI 1640. Human peripheral blood mononuclear cells were added to each well in 100 μl volumes (final cell concentration equal to 50,000 cells per well). After 15 minutes, 100 μl of 5 μg/ml concanavalin-A (Sigma Chemical Co., St. Louis, Mo.) in supplemented RPMI 1640 was added to a final concentration of 2.5 μg/ml. Plates were incubated for 3 days at 37° C. with 5% CO2. On day 3, plates were pulsed with 0.5 μCi/well tritiated thymidine (New England Nuclear, Boston, Mass.). After 6 hours, plates were harvested on a Tomatec 96-well havester (Orange, Conn.). Glass filter mats were counted on a Matrix 9600 direct beta counter (Packard, Meriden, Conn.).

[1] = Homo sapiens, PBMC, concentration 100 μm (in parentheses in the cell)
[2] = concentration 100 μm (in parentheses in the cell)
[3] = Homo sapiens, PBMC, concentration 1 μm (in parentheses in the cell)
[4] = Homo sapiens, PBMC, concentration 10 μm (in parentheses in the cell)
[5] = concentration 1 μm (in parentheses in the cell)

Nc1cnccc1C(=O)Nc1ccc(-n2nc(C(F)(F)F)cc2C(F)(F)F)cc1 [Example 290, 3-amino-N-(4-(3,5-bis(trifluoromethyl)-1H-pyrazol-1-yl)phenyl)isonicotinamide]
IC50 (Homo sapiens, PBMC): 373 nM

Cc1nnsc1C(=O)Nc1ccc(-n2nc(-c3ccoc3)cc2Cl)cc1 [Example 355, N-(4-(5-chloro-3-(3-furyl)-1H-pyrazol-1-yl)phenyl)-4-methyl-1,2,3-thiadiazole-5-carboxamide]
IC50 (Homo sapiens, PBMC): 282 nM

O=C(Nc1ccc(-n2nc(C(F)(F)F)cc2C(F)(F)F)cc1)c1cccc(Br)c1 [Example 144, N-[4-[3,5-bis(trifluoromethyl)-1H-pyrazol-1-yl]phenyl]-3-bromobenzamide]
inhibition at 100 µM [1]: 100% | IC50 (Homo sapiens, PBMC): 240 nM

O=C(Nc1ccc(-n2nc(C(F)(F)F)cc2C(F)(F)F)cc1)C1CCCC1 [Example 123, N-[4-[3,5-bis(trifluoromethyl)-1H-pyrazol-1-yl]phenyl]cyclopentanecarboxmide]
IC50: 256 nM | % Inhibition of proliferation (at concentrations of 1,10, or 100 μm) [2]: 99(100) %

O=C(Nc1ccccc1Br)c1ccc(-n2nc(C(F)(F)F)cc2C(F)(F)F)cc1 [Example 192, 4-[3,5-Bis(trifluoromethyl)-1H-pyrazol-1-yl]-N-(2-bromophenyl)benzamide]
inhibition at 1 µM [3]: 10%

Fc1ccc(/N=C/c2ccc(-n3nc(C(F)(F)F)cc3C(F)(F)F)cc2)c(F)c1 [Example 97, (E)-N-[4-[3,5-bis(trifluoromethyl)-1H-pyrazol-1-yl]phenylmethylene]-2,4-difluorobenzenamine]
inhibition at 10 µM [4]: 20%

N#Cc1cc(-c2nccs2)nn1-c1ccc(NC(=O)c2ccncc2F)cc1 [Example 341, N-(4-(5-cyano-3-(1,3-thiazol-2-yl)-1H-pyrazol-1-yl)phenyl)-3-fluoroisonicotinamide]
IC50: 191 nM

O=C(Nc1ccc(-n2nc(C(F)(F)F)cc2C(F)(F)F)cc1)c1cncc(Br)c1 [Example 256, N-[4-[3,5-bis(trifluoromethyl)-1H-pyrazol-1-yl]phenyl]-5-bromo-3-pyridinecarboxamide]
inhibition at 10 µM [4]: 100% | IC50 (Homo sapiens, PBMC): 250 nM

Cc1nnsc1C(=O)Nc1ccc(-n2nc(-c3cccnc3)cc2C#N)cc1 [Example 331, N-(4-(5-cyano-3-(3-pyridinyl)-1H-pyrazol-1-yl)phenyl)-4-methyl-1,2,3-thiadiazole-5-carboxamide]
IC50 (Homo sapiens, PBMC): 220 nM

Nc1cc(NC(=O)c2ccccc2F)ccc1-n1nc(C(F)(F)F)cc1C(F)(F)F [Example 298, N-{3-amino-4-[3,5-bis(trifluoromethyl)-1H-pyrazol-1-yl]phenyl}-2-fluorobenzamide]
IC50 (Homo sapiens, PBMC): 332 nM

O=C(Nc1ccc(-n2nc(C(F)(F)F)cc2C(F)(F)F)cc1)c1cnccn1 [Example 172, N-[4-[3,5-Bis(trifluoromethyl)-1H-pyrazol-1-yl]phenyl]pyazinecarboxamide]
% Inhibition of proliferation (at concentrations of 1,10, or 100 μm) [5]: 48(1) %

O=C(Nc1ccc(-n2nc(-c3ccncc3)cc2C(F)(F)F)cc1)c1ccncc1F [Example 318, 3-fluoro-N-(4-(3-(4-pyridinyl)-5-(trifluoromethyl)-1H-pyrazol-1-yl)phenyl)isonicotinamide]
IC50 (Homo sapiens, PBMC): 258 nM

O=C(Nc1ccc(-n2nc(C(F)(F)F)cc2-c2ccco2)cc1)c1ccccc1F [Example 301, 2-fluoro-N-(4-(5-(2-furyl)-3-(trifluoromethyl)-1H-pyrazol-1-yl)phenyl)benzamide]
IC50 (Homo sapiens, PBMC): 232 nM

O=C(Nc1ccc(-n2nc(C(F)(F)F)cc2C(F)(F)F)cn1)c1ccccc1F [Example 297, N-(5-(3,5-bis(trifluoromethyl)-1H-pyrazol-1-yl)-2-pyridinyl)-2-fluorobenzamide]
IC50 (Homo sapiens, PBMC): 251 nM

COC(=O)c1cc(NC(=O)c2ccccc2F)ccc1-n1nc(C(F)(F)F)cc1C(F)(F)F [Example 293, methyl 2-(3,5-bis(trifluoromethyl)-1H-pyrazol-1-yl)-5-((2-fluorobenzoyl)amino)benzoate]
IC50 (Homo sapiens, PBMC): 409 nM

O=C(CCCNC(=O)OCc1ccccc1)Nc1ccc(-n2nc(C(F)(F)F)cc2C(F)(F)F)cc1 [Example 158]
% Inhibition of proliferation (at concentrations of 1,10, or 100 μm) [5]: 30(1) %

O=C(Nc1ccc(-n2nc(C(F)(F)F)cc2C(F)(F)F)cc1)c1cc(Br)c(Br)s1 [Example 263, N-[4-[3,5-bis(trifluoromethyl)-1H-pyrazol-1-yl]phenyl]-2,3-dibromo-5-thiophenecarboxamide]
inhibition at 10 µM [4]: 100% | IC50 (Homo sapiens, PBMC): 2930 nM

O=S(=O)(Nc1ccc(-n2nc(C(F)(F)F)cc2C(F)(F)F)cc1)c1cc(F)cc(F)c1 [Example 5, N-[4-[3,5-bis(trifluoromethyl)-1H-pyrazol-1-yl]phenyl]-3,5-difluorobenzenesulfonamide]
inhibition at 100 µM [1]: 100% | IC50 (Homo sapiens, PBMC): 33700 nM

O=C(Nc1ccc(-n2nc(C(F)(F)F)cc2C(F)(F)F)cc1)C1CC2C=CC1C2 (stereo not shown) [Example 26, N-[4-[3,5-bis(trifluoromethyl)-1H-pyrazol-1-yl]phenyl]bicyclo[2.2.1]hept-5-ene-2-carboxamide]
inhibition at 1 µM [3]: 24%

O=C(Nc1ccc(-n2nc(C(F)(F)F)cc2C(F)(F)F)cc1)c1cc([N+](=O)[O-])cc([N+](=O)[O-])c1 [Example 134, N-[4-[3,5-bis(trifluoromethyl)-1H-pyrazol-1-yl]phenyl]-3,5-dinitrobenzamide]
inhibition at 100 µM [2]: 100% | IC50: 2770 nM

O=C(Nc1ccc(-n2nc(C(F)(F)F)cc2[N+](=O)[O-])cc1)c1ccncc1F [Example 333, 3-fluoro-N-(4-(5-nitro-3-(trifluoromethyl)-1H-pyrazol-1-yl)phenyl)isonicotinamide]
IC50 (Homo sapiens, PBMC): 410 nM

Cc1nnsc1C(=O)Nc1ccc(-n2nc(-c3cccnc3)cc2[N+](=O)[O-])cc1 [Example 337, N-[4-[3-(3-pyridyl)-5-nitro-1H-pyrazol-1-yl]phenyl]-4-methylthiadiazol-5-yl-carboxamide]
IC50: 221 nM

N#Cc1cc(-c2nccs2)nn1-c1ccc(NC(=O)c2ccncc2F)cc1 [Example 338, N-(4-(5-cyano-3-(1,3-thiazol-2-yl)-1H-pyrazol-1-yl)phenyl)-3-fluoroisonicotinamide]
IC50 (Homo sapiens, PBMC): 164 nM

COC(=O)c1cc(NC(=O)c2cc(Br)ccc2Cl)ccc1-n1nc(C(F)(F)F)cc1C(F)(F)F [Example 274, methyl 2-[3,5-bis(trifluoromethyl)-1H-pyrazol-1-yl]-5-[(5-bromo-2-chlorobenzoyl)amino]benzoate]
inhibition at 10 µM [4]: 100% | IC50 (Homo sapiens, PBMC): 2180 nM

Cc1nc(C)c(-c2cc(C(F)(F)F)n(-c3ccc(NC(=O)c4ccncc4F)cc3)n2)s1 [Example 343, N-(4-(3-(2,4-dimethyl-1,3-thiazol-5-yl)-5-(trifluoromethyl)-1H-pyrazol-1-yl)phenyl)-3-fluoroisonicotinamide]
IC50 (Homo sapiens, PBMC): 250 nM

O=C(Nc1ccc(-n2nc(C(F)(F)F)cc2C(F)(F)F)cc1)c1cc([N+](=O)[O-])c(Cl)c([N+](=O)[O-])c1Cl [Example 233, N-4-[3,5-bis(trifluoromethyl)-1H-pyrazol-1-yl]phenyl-2,4-dichloro-3,5-dinitrobenzamide]
IC50: 340 nM | % Inhibition of proliferation (at concentrations of 1,10, or 100 μm) (concentration 10 μm (in parentheses in the cell)): 100(10) %

O=C(Nc1ccc(-n2nc(C(F)(F)F)cc2OC(F)F)cc1)c1ccncc1 [Example 322, N-(4-(5-(difluoromethoxy)-3-(trifluoromethyl)-1H-pyrazol-1-yl)phenyl)isonicotinamide]
IC50 (Homo sapiens, PBMC): 238 nM

O=C(Nc1ccc(-n2nc(C(F)(F)F)cc2C(F)(F)F)cc1)c1cccc2ccccc12 [Example 66, N-[4-[3,5-bis(trifluoromethyl)-1H-pyrazol-1-yl]phenyl]-1-naphthylenecarboxamide]
IC50: 1040 nM | % Inhibition of proliferation (at concentrations of 1,10, or 100 μm) [2]: 97(100) %
